Reference: patent publication US20250250252A1, “PIPERIDINYLBENZONITRILE DERIVATIVES AS INHIBITORS OF GLUTAMINYL-PEPTIDE CYCLOTRANSFERASE AND GLUTAMINYL-PEPTIDE CYCLOTRANSFERASE LIKE PROTEIN” (Boehringer Ingelheim International GmbH, priority 2024, published 2025)

Key:
A549 cells = conditions: disclosed in WO 2023/205173 [00470]; read-out: cellular activity in A549 cells EC50; cited from earlier work
CYP3A4 mRNA = test: Assay D: CYP induction screening assay in primary human hepatocytes; assay type: in vitro ADME; conditions: 48 h
Description: Cryopreserved plateable human hepatocytes (single donor, BioIVT) were thawed and plated in Collagen-I coated 96-well-plates at a cell density of 0.07 million cells per well.
After a 6 h attachment period, the seeding medium was replaced by serum-free William's medium E supplemented with Matrigel (0.25 mg/ml) and allowed to recover overnight. 24 h post-seeding, serum-free Williams E medium containing the test compound at a final concentration of 10 μM and a final DMSO content of 0.1% and 0.1% DMSO (solvents treated control), respectively, was added to predefined wells. Exposure solutions were renewed after 24 h.
After 48 h of treatment in total, the effect of the test compounds on CYP3A4 mRNA expression was assessed using the QuantiGene Plex Gene Expression Assay. Hepatocytes were lysed and total RNA was extracted using the QuantiGene Sample Processing Kit according to the instructions of the manufacturer.
mRNA quantification was conducted using a customized QuantiGene Plex Panel to analyse CYP3A4 and the housekeeper genes RPL32, EIF4E2 and GUSB according to the instructions of the manufacturer and measured on a Luminex™ instrument. Signal was reported as median fluorescence intensity (MFI), which is proportional to the number of target RNA molecules present in the sample.
For calculation of CYP3A4 mRNA induction, the signal for CYP3A4 was normalized against the geometric mean of the signal obtained for the housekeeper genes for hepatocytes exposed to test compounds in relation to solvent-treated samples according to the following equation:
n-fold induction=(MFI CYP3A4 (treated)/Xgeo MFI (RPL32,EIF4E2,GUSB))/(MFI CYP3A4 (solvent control)/Xgeo MFI (RPL32,EIF4E2,GUSB))

isolated QPCTL = isolated QPCTL (Homo sapiens (Human), UniProt Q9NXS2); conditions: disclosed in WO 2023/205173 [00470]; read-out: inhibitory activity on isolated QPCTL IC50; cited from earlier work
Sequence of isolated QPCTL (Q9NXS2 whole entry, species assumed): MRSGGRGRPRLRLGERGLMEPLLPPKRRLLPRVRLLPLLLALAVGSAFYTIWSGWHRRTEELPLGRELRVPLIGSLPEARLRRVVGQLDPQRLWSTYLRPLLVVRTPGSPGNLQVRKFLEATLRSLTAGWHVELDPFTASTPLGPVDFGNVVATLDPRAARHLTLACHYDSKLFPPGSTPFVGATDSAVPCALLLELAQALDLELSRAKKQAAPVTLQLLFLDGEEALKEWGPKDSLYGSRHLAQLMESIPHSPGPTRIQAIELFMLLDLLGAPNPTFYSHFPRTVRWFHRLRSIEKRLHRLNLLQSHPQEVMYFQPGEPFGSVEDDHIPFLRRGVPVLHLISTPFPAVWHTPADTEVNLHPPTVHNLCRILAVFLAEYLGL

QPCTL = QPCTL (Homo sapiens (Human), UniProt Q9NXS2); test: Assay A: biochemical QPCTL activity assay (MALDI-TOF MS); conditions: read-out: Inhibition of QPCTL: IC50
Sequence of QPCTL (Q9NXS2 whole entry): as the sequence (Q9NXS2 whole entry, species assumed) above
Description: (§1) QPCT or QPCTL dependent conversion of N-terminal glutamine to pyroglutamate of CD47 was monitored via MALDI-TOF MS. Test compounds were dissolved in 100% DMSO and serially diluted into clear 1,536-well microtiter plates. Enzymatic reactions were set up in assay buffer containing 20 mM Tris pH 7.5, 0.1 mM TCEP, 0.01% BSA, and 0.001% Tween20. […] The plates were incubated for 10 min in a humidified incubator at 24° C. Subsequently, 2.5 μL of CD47 peptide substrate surrogate (^19[…]^33) was added to each well (final concentration: 10 μM for QPCTL/20 μM for QPCT). The plates were mixed for 30 sec at 1,000 rpm and subsequently incubated for 40 min in a humidified incubator at 24° C. […] The plates were sealed with an adhesive foil, mixed for 30 s at 1,000 rpm and stored at room temperature until preparation of the MALDI target plates. […] QPCT or QPCTL activity was monitored by calculating the ratio between product and internal standard signals followed by normalization to high (100% activity) and low (0% activity) controls. Determination of compound potencies was obtained by fitting the dose-response data to a four-parameter logistical equation.

murine hepatocytes = test: Assay E: Stability in murine hepatocytes; assay type: in vitro ADME, mouse; conditions: 1 μM
Description: The metabolic degradation of the test compound is assayed in a murine hepatocyte suspension.
Murine hepatocytes (typically cryopreserved) are incubated in an appropriate buffer system (e.g. Dulbecco's modified eagle medium plus 3.5 μg glucagon/500 mL, 2.5 mg insulin/500 mL and 3.75 mg/500 mL hydrocortison) containing 5% species serum.
Following a (typically) 30 min preincubation in an incubator (37° C., 10% CO2) 5 μl of test compound solution (80 μM; from 2 mM in DMSO stock solution diluted 1:25 with medium) are added into 395 μl hepatocyte suspension (cell density in the range 0.25-5 Mio cells/mL, typically 1 Mio cells/mL; final concentration of test compound 1 μM, final DMSO concentration 0.05%).
The cells are incubated for six hours (incubator, orbital shaker) and samples (2 μl) are taken at 0, 0.5, 1, 2, 4 and 6 hours. Samples are transferred into acetonitrile and pelleted by centrifugation (5 min). The supernatant is transferred to a new 96-deepwell plate, evaporated under nitrogen and resuspended.
CLint is calculated as follows CL_[…]=Dose/AUC=(C0/CD)/(AUD+clast/k)×1000/60. C0: initial concentration in the incubation [μM], CD: cell density of vital cells [10e6cells/mL], AUD: area under the data [μM×h], clast: concentration of last data point [μM], k: slope of the regression line for parent decline [h−1].
The calculated in vitro hepatic intrinsic clearance can be scaled up to the intrinsic in vivo hepatic Clearance and used to predict hepatic in vivo blood clearance (CL) by the use of a liver model (well stirred model).
CL_[…]_INVIVO[ml/min/kg]=(CL_[…][μL/min/10e6cells]×hepatocellularity[10e6cells/g liver]×liver factor[g/kg bodyweight])/1000
CL[ml/min/kg]=CL_[…]_INVIVO[ml/min/kg]×hepatic blood flow[ml/min/kg]/(CL_[…]_INVIVO[ml/min/kg]+hepatic blood flow[ml/min/kg])
Hepatocellularity,mouse:120×10e6cells/g liver
Liver factor,mouse:55 g/kg bodyweight
Blood flow,mouse:90 ml/(min×kg)

QPCT = QPCT (Homo sapiens (Human), UniProt Q16769); test: Assay A: biochemical QPCT activity assay (MALDI-TOF MS); conditions: read-out: Inhibition of QPCT: IC50
Sequence of QPCT (Q16769 29-361): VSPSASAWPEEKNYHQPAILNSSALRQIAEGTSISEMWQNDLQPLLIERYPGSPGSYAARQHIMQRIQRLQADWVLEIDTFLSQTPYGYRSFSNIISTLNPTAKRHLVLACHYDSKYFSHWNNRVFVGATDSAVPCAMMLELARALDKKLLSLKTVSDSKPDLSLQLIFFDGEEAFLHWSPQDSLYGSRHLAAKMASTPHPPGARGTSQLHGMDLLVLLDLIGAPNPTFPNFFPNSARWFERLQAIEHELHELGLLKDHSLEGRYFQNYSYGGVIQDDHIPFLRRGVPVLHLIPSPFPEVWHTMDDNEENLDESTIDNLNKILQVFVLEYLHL
Description: as §1

[1] = Assay C: Permeability in CACO-2 cells; assay type: in vitro ADME; conditions: human, Assay C
Description: (§2) Caco-2 cells (1-2×10^5 cells/1 cm^2 area) are seeded on filter inserts (Costar transwell polycarbonate or PET filters, 0.4 μm pore size) and cultured (DMEM) for 10 to 25 days. Compounds are dissolved in appropriate solvent (like DMSO, 1-20 mM stock solutions). […] The transport solution (TL) is applied to the apical or basolateral donor side for measuring A-B or B-A permeability (3 filter replicates), respectively. Samples are collected at the start and end of experiment from the donor and at various time intervals for up to 2 hours also from the receiver side for concentration measurement by HPLC-MS/MS or scintillation counting. Sampled receiver volumes are replaced with fresh receiver solution.
(§3) Efflux ratio (ER)=permeability B-A/permeability A-B

Ramos cells = conditions: disclosed in WO 2024/020517 [00698]; read-out: cellular activity in Ramos cells IC50; cited from earlier work
[2] = tested on: SIRPα signalling induced by A549 cells; test: Assay B: SIRPα signalling assay using A549 cells; assay type: cell-based; conditions: Homo sapiens, read-out: Inhibition of SIRPα signalling induced by A549 cells: IC50
Description: Two cell types are independently used: the Raji cell line (lymphoblast-like human cell line derived from B lymphocytes from a Burkitt's lymphoma patient in 1963) and A549 cells (adenocarcinomic human alveolar basal epithelial cells).
Test compounds were dissolved in 100% DMSO and serially diluted into a white 384-well microtiter cell culture plate (PerkinElmer #60076780 in case of Raji assay; PDL-coated plates Greiner #781945 in case of A549 assay). 5000 Raji cells (ATCC #CC86) or 5000 A549 cells (ATCC #CCL-185) in Assay Complete Cell Plating reagent 30 (DiscoverX 93-0563R30B) were added per well. The assay plate was incubated for 48 h at 37° C., 95% humidity and 5% CO2. 15000 reporter cells (Jurkat PathHunter SIRPαV1, DiscoverX #93-1135C19) were added to each well, and the plate was incubated for 5 h at 37° C., 95% humidity and 5% CO2. Bioassay reagent 1 of the PathHunter Bioassay detection kit (DiscoverX 93-0001) was added to each well of the plate using a multichannel pipette followed by a 15 min incubation at room temperature. Afterwards bioassay reagent 2 was added followed by 60 min incubation at room temperature (incubation in the dark).
The analysis of the data was performed using the luminescence signal generated by betagalactosidase in the PathHunter reporter cell line. The luminescence measurement was done using a Pherastar Multi-Mode Reader. Dose-response curves & IC50 data were calculated with 4-parameter sigmoidal dose response formula.

CACO-2 cells = test: Assay C: Permeability in CACO-2 cells; assay type: in vitro ADME; conditions: pair comparison without/with 4-fluoropiperidyl
Description: as §2, §3

| SMILES | EC50 (A549 cells) | n-fold induction of CYP3A4 at 10 μM (CYP3A4 mRNA) | IC50 (isolated QPCTL) | IC50 (QPCTL) | Mouse Hepatocyte Stability QH (murine hepatocytes) | IC50 (QPCT) | efflux ratio ([1]; Caco-2, pH 7.2, permeability B-A/permeability A-B, read-out: Efflux Ratio) | Papp A→B ([1]; pH 7.2, CACO-2 cells) | IC50 (Ramos cells) | IC50 [2] | CACO2 Perm. (CACO-2 cells) |
| --- | --- | --- | --- | --- | --- | --- | --- | --- | --- | --- | --- |
| Cn1c(N)nnc1C1CCN(c2c(C#N)cccc2-c2ccc(F)nc2)CC1 [Compound 14, reference compound] | < 1000 nM | 1.9 n-fold | < 1000 nM | 1 nM | 31% | < 1 nM | 22.2 | 0.7 ×10⁻⁶ cm/s | – | – | – |
| Cn1cnnc1C1CCN(c2c(C#N)cccc2-c2ccc(F)nc2)CC1 [(1)/QP5020, reference compound] | – | – | – | – | 82% | – | – | – | < 100 nM | 8 nM | 28.0 10^−6 cm/sec |
